*1 amine or outer side, *2 acyl side, *3 side chain or, on linkers, in order; H or OH if unused. Where a SMILES comes first, the peptide text is derived from it. Side-chain parts run from the residue outwards. [ ]: non-standard residue; d: D form. The star is where a group is joined. C20 diacid = O=C(O)CCCCCCCCCCCCCCCCCCC(=O)*; C18 diacid = O=C(O)CCCCCCCCCCCCCCCCC(=O)*; αMePhe(2-F) = C[C@](N)(Cc1ccccc1F)C(=O)O; γGlu = O=C(O)[C@H](CCC(=O)[*:2])N[*:1]; αMeF = C[C@](N)(Cc1ccccc1)C(=O)O; AEEA = NCCOCCOCC(=O)O; Aib = CC(C)(N)C(=O)O

In experiment [1] the target is T1, human GcgR (Homo sapiens, UniProt P47871).
T1 construct: expressed in transfected cells; crude membranes
T1 sequence (P47871 26-477): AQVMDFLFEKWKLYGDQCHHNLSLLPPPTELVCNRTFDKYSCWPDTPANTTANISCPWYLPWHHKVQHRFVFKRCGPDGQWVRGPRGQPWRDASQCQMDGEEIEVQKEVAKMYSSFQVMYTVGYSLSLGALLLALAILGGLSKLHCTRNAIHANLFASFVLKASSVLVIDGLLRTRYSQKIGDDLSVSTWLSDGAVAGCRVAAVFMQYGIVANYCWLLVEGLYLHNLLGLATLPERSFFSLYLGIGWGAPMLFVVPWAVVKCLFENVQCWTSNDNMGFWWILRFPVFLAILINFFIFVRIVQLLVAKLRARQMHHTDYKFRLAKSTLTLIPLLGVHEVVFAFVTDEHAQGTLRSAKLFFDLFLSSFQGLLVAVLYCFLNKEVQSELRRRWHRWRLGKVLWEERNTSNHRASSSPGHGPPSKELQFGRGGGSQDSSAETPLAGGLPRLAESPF
Put plainly: [125I]-Glucagon binding, SPA with WGA beads, 0.1% bacitracin. The settings on record: geometric mean, read-out: hGcgR Ki. Summed up: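 SPA competition binding with WGA beads on crude membranes from HEK293 cells stably expressing hGcgR. Buffer: 25 mM HEPES pH 7.4, 2.5 mM CaCl2, 1 mM MgCl2, 0.1% bacitracin, 0.003% Tween-20; 10-point 3-fold dilutions, NSB with 1 μM Gcg.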

Experiment [2] has as its target T2, human GIPR (Homo sapiens, UniProt P48546).
T2 construct: expressed in transfected cells; crude membranes
T2 sequence (P48546 22-466): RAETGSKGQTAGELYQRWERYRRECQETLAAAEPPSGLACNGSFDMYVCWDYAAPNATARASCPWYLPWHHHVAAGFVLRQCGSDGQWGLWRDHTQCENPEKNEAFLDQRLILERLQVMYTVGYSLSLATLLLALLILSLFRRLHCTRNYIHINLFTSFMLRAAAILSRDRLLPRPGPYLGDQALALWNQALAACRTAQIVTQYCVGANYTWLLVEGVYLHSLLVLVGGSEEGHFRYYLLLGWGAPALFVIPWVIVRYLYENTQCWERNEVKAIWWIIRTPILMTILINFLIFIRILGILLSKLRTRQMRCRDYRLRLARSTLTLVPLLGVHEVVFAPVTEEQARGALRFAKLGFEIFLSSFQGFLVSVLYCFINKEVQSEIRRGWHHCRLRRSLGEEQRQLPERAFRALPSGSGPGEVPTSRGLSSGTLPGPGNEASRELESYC
The experiment in a line: [125I]-GIP binding, SPA with WGA beads, 0.1% bacitracin. The settings on record: geometric mean, read-out: hGIPR Ki. Summed up:
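Ki values are geometric means (SEM, n independent days), derived from four-parameter nonlinear regression of IC50. Membranes came from hGIPR-expressing CHO cells.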

For experiment [3], the target named is T3, human GLP-1R (Homo sapiens, UniProt P43220).
T3 construct: expressed in transfected cells; crude membranes
T3 sequence (P43220 24-463): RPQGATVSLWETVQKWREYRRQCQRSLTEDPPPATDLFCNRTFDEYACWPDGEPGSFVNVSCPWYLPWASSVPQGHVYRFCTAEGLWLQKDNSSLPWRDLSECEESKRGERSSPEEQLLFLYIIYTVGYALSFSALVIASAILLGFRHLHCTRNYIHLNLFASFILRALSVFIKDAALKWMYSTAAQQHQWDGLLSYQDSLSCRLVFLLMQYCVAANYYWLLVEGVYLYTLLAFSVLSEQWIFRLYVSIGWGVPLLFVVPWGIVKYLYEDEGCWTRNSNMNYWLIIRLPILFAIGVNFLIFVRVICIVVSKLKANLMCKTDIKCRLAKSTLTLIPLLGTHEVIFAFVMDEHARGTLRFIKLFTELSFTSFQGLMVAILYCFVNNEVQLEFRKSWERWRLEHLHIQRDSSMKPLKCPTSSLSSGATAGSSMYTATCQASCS
Put plainly: [125I]-GLP-1 binding, SPA with WGA beads, 0.1% bacitracin. To be noted: geometric mean, read-out: hGLP1R Ki. Summed up: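 Binding buffer was 25 mM HEPES pH 7.4 with 2.5 mM CaCl2, 1 mM MgCl2, 0.1% (w/v) bacitracin, 0.003% Tween-20 and EDTA-free protease inhibitors. Four-parameter regression gave IC50, converted to Ki (geometric mean, SEM, n independent days).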

Turning to `CC[C@H](C)[C@H](NC(=O)[C@H](CO)NC(=O)[C@H](Cc1ccc(O)cc1)NC(=O)[C@H](CC(=O)O)NC(=O)[C@H](CO)NC(=O)[C@@H](NC(=O)[C@](C)(Cc1ccccc1F)NC(=O)[C@@H](NC(=O)CNC(=O)[C@H](CCC(=O)O)NC(=O)C(C)(C)NC(=O)[C@@H](N)Cc1ccc(O)cc1)[C@@H](C)O)[C@@H](C)CC)C(=O)N[C@@H](C)C(=O)N[C@@H](CC(C)C)C(=O)N[C@@H](CC(=O)O)C(=O)N[C@@H](CCCCN)C(=O)N[C@H](C(=O)N[C@@H](Cc1c[nH]cn1)C(=O)N[C@@H](CCC(N)=O)C(=O)NC(C)(C)C(=O)N[C@@H](CCC(=O)O)C(=O)N[C@@H](Cc1ccccc1)C(=O)N[C@H](C(=O)N[C@@H](CC(N)=O)C(=O)N[C@@H](Cc1ccc(O)cc1)C(=O)N[C@@H](CCCCNC(=O)COCCOCCNC(=O)COCCOCCNC(=O)CC[C@H](NC(=O)CCCCCCCCCCCCCCCCC(=O)O)C(=O)O)C(=O)N[C@@H](CC(C)C)C(=O)N[C@@H](C)C(=O)NCC(=O)NCC(=O)N1CCC[C@H]1C(=O)N[C@@H](CO)C(=O)N[C@@H](CO)C(=O)NCC(=O)N[C@@H](C)C(=O)N1CCC[C@H]1C(=O)N1CCC[C@H]1C(=O)N1CCC[C@H]1C(=O)N[C@@H](CO)C(N)=O)C(C)C)[C@@H](C)CC` [Example 94] (H-Y[Aib]EGT[αMePhe(2-F)]ISDYSIALDKIHQ[Aib]EFVNYK([AEEA-AEEA-γGlu-C18 diacid])LAGGPSSGAPPPS-NH2), the Ki is 114 nM in experiment [1], 0.031 nM in experiment [2] and over 909 nM in experiment [3].
Regarding `CC[C@H](C)[C@H](NC(=O)[C@H](CO)NC(=O)[C@H](Cc1ccc(O)cc1)NC(=O)[C@H](CC(=O)O)NC(=O)[C@H](CO)NC(=O)[C@@H](NC(=O)[C@](C)(Cc1ccccc1F)NC(=O)[C@@H](NC(=O)CNC(=O)[C@H](CCC(=O)O)NC(=O)C(C)(C)NC(=O)[C@@H](N)Cc1ccc(O)cc1)[C@@H](C)O)[C@@H](C)CC)C(=O)N[C@@H](C)C(=O)N[C@@H](CC(C)C)C(=O)N[C@@H](CC(=O)O)C(=O)N[C@@H](CCCCN)C(=O)N[C@H](C(=O)N[C@@H](Cc1c[nH]cn1)C(=O)N[C@@H](CCC(N)=O)C(=O)NC(C)(C)C(=O)N[C@@H](CCC(=O)O)C(=O)N[C@@H](Cc1ccccc1)C(=O)N[C@H](C(=O)N[C@@H](CC(N)=O)C(=O)N[C@@H](Cc1ccc(O)cc1)C(=O)N[C@@H](CCCCNC(=O)COCCOCCNC(=O)COCCOCCNC(=O)CC[C@H](NC(=O)CCCCCCCCCCCCCCCCCCC(=O)O)C(=O)O)C(=O)N[C@@H](CC(C)C)C(=O)N[C@@H](CCC(=O)O)C(=O)NCC(=O)NCC(=O)N1CCC[C@H]1C(=O)N[C@@H](CO)C(=O)N[C@@H](CO)C(=O)NCC(=O)N[C@@H](C)C(=O)N1CCC[C@H]1C(=O)N1CCC[C@H]1C(=O)N1CCC[C@H]1C(=O)N[C@@H](CO)C(N)=O)C(C)C)[C@@H](C)CC` [Example 95] (H-Y[Aib]EGT[αMePhe(2-F)]ISDYSIALDKIHQ[Aib]EFVNYK([AEEA-AEEA-γGlu-C20 diacid])LEGGPSSGAPPPS-NH2), the Ki is 85 nM in experiment [1], 0.0255 nM in experiment [2] and 832 nM in experiment [3].
For `CC[C@H](C)[C@H](NC(=O)[C@H](CO)NC(=O)[C@H](Cc1ccc(O)cc1)NC(=O)[C@H](CC(=O)O)NC(=O)[C@H](CO)NC(=O)[C@@H](NC(=O)[C@H](Cc1ccccc1)NC(=O)[C@@H](NC(=O)CNC(=O)[C@H](CCC(=O)O)NC(=O)C(C)(C)NC(=O)[C@@H](N)Cc1ccc(O)cc1)[C@@H](C)O)[C@@H](C)CC)C(=O)N[C@@H](C)C(=O)N[C@@H](CC(C)C)C(=O)N[C@@H](CC(=O)O)C(=O)N[C@@H](CCCCN)C(=O)N[C@H](C(=O)N[C@@H](Cc1c[nH]cn1)C(=O)N[C@@H](CCC(N)=O)C(=O)NC(C)(C)C(=O)N[C@@H](CCC(=O)O)C(=O)N[C@@H](Cc1ccccc1)C(=O)N[C@H](C(=O)N[C@@H](CC(N)=O)C(=O)N[C@@H](Cc1ccc(O)cc1)C(=O)N[C@@H](CCCCNC(=O)COCCOCCNC(=O)COCCOCCNC(=O)CC[C@H](NC(=O)CCCCCCCCCCCCCCCCCCC(=O)O)C(=O)O)C(=O)N[C@@H](CC(C)C)C(=O)N[C@@H](C)C(=O)NCC(=O)NCC(=O)N1CCC[C@H]1C(=O)N[C@@H](CO)C(=O)N[C@@H](CO)C(=O)NCC(=O)N[C@@H](C)C(=O)N1CCC[C@H]1C(=O)N1CCC[C@H]1C(=O)N1CCC[C@H]1C(=O)N[C@@H](CO)C(N)=O)C(C)C)[C@@H](C)CC` [Example 96] (H-Y[Aib]EGTFISDYSIALDKIHQ[Aib]EFVNYK([AEEA-AEEA-γGlu-C20 diacid])LAGGPSSGAPPPS-NH2), in that order: over 960 nM, 0.232 nM and over 908 nM.
Turning to `CC[C@H](C)[C@H](NC(=O)[C@H](CO)NC(=O)[C@H](Cc1ccc(O)cc1)NC(=O)[C@H](CC(=O)O)NC(=O)[C@H](CO)NC(=O)[C@@H](NC(=O)[C@](C)(Cc1ccccc1)NC(=O)[C@@H](NC(=O)CNC(=O)[C@H](CCC(=O)O)NC(=O)C(C)(C)NC(=O)[C@@H](N)Cc1ccc(O)cc1)[C@@H](C)O)[C@@H](C)CC)C(=O)N[C@@H](C)C(=O)N[C@@H](CC(C)C)C(=O)N[C@@H](CC(=O)O)C(=O)N[C@@H](CCCCN)C(=O)N[C@H](C(=O)N[C@@H](Cc1c[nH]cn1)C(=O)N[C@@H](CCC(N)=O)C(=O)NC(C)(C)C(=O)N[C@@H](CCC(=O)O)C(=O)N[C@@H](Cc1ccccc1)C(=O)N[C@H](C(=O)N[C@@H](CC(N)=O)C(=O)N[C@@H](Cc1ccc(O)cc1)C(=O)N[C@@H](CCCCNC(=O)COCCOCCNC(=O)COCCOCCNC(=O)CC[C@H](NC(=O)CCCCCCCCCCCCCCCCCCC(=O)O)C(=O)O)C(=O)N[C@@H](CC(C)C)C(=O)N[C@@H](C)C(=O)NCC(=O)NCC(=O)N1CCC[C@H]1C(=O)N[C@@H](CO)C(=O)N[C@@H](CO)C(=O)NCC(=O)N[C@@H](C)C(=O)N1CCC[C@H]1C(=O)N1CCC[C@H]1C(=O)N1CCC[C@H]1C(=O)N[C@@H](CO)C(N)=O)C(C)C)[C@@H](C)CC` [Example 97] (H-Y[Aib]EGT[αMeF]ISDYSIALDKIHQ[Aib]EFVNYK([AEEA-AEEA-γGlu-C20 diacid])LAGGPSSGAPPPS-NH2), the Ki was 77.5 nM in experiment [1], 0.0249 nM in experiment [2] and 570 nM in experiment [3].
In the same order, the values of `CC[C@H](C)[C@H](NC(=O)[C@H](CO)NC(=O)[C@H](Cc1ccc(O)cc1)NC(=O)[C@H](CC(=O)O)NC(=O)[C@H](CO)NC(=O)[C@@H](NC(=O)[C@](C)(Cc1ccccc1F)NC(=O)[C@@H](NC(=O)CNC(=O)[C@H](CCC(=O)O)NC(=O)C(C)(C)NC(=O)[C@@H](N)Cc1ccc(O)cc1)[C@@H](C)O)[C@@H](C)CC)C(=O)N[C@@H](C)C(=O)N[C@@H](CC(C)C)C(=O)N[C@@H](CC(=O)O)C(=O)N[C@@H](CCCCN)C(=O)N[C@H](C(=O)N[C@@H](Cc1c[nH]cn1)C(=O)N[C@@H](CCC(N)=O)C(=O)NC(C)(C)C(=O)N[C@@H](CCC(=O)O)C(=O)N[C@@H](Cc1ccccc1)C(=O)N[C@H](C(=O)N[C@@H](CC(N)=O)C(=O)N[C@@H](Cc1ccc(O)cc1)C(=O)N[C@@H](CCCCNC(=O)COCCOCCNC(=O)COCCOCCNC(=O)CC[C@H](NC(=O)CCCCCCCCCCCCCCCCCCC(=O)O)C(=O)O)C(=O)N[C@@H](CC(C)C)C(=O)N[C@@H](C)C(=O)NCC(=O)NCC(=O)N1CCC[C@H]1C(=O)N[C@@H](CO)C(=O)N[C@@H](CO)C(=O)NCC(=O)N[C@@H](C)C(=O)N1CCC[C@H]1C(=O)N1CCC[C@H]1C(=O)N1CCC[C@H]1C(=O)N[C@@H](CO)C(N)=O)C(C)C)[C@@H](C)CC` [Example 98] (H-Y[Aib]EGT[αMePhe(2-F)]ISDYSIALDKIHQ[Aib]EFVNYK([AEEA-AEEA-γGlu-C20 diacid])LAGGPSSGAPPPS-NH2) are 38.4 nM, 0.0195 nM and 311 nM.
For `CC[C@H](C)[C@H](NC(=O)[C@H](CO)NC(=O)[C@H](Cc1ccc(O)cc1)NC(=O)[C@H](CC(=O)O)NC(=O)[C@H](CO)NC(=O)[C@@H](NC(=O)[C@](C)(Cc1ccccc1F)NC(=O)[C@@H](NC(=O)CNC(=O)[C@H](CCC(=O)O)NC(=O)C(C)(C)NC(=O)[C@@H](N)Cc1ccc(O)cc1)[C@@H](C)O)[C@@H](C)CC)C(=O)N[C@@H](C)C(=O)N[C@@H](CC(C)C)C(=O)N[C@@H](CC(=O)O)C(=O)N[C@@H](CCCCN)C(=O)N[C@H](C(=O)N[C@@H](Cc1c[nH]cn1)C(=O)N[C@@H](CCC(N)=O)C(=O)NC(C)(C)C(=O)N[C@@H](CC(=O)O)C(=O)N[C@@H](Cc1ccccc1)C(=O)N[C@H](C(=O)N[C@@H](CCC(=O)O)C(=O)N[C@@H](Cc1ccc(O)cc1)C(=O)N[C@@H](CCCCNC(=O)COCCOCCNC(=O)COCCOCCNC(=O)CC[C@H](NC(=O)CCCCCCCCCCCCCCCCCCC(=O)O)C(=O)O)C(=O)N[C@@H](CC(C)C)C(=O)N[C@@H](CCC(=O)O)C(=O)NCC(=O)NCC(=O)N1CCC[C@H]1C(=O)N[C@@H](CO)C(=O)N[C@@H](CO)C(=O)NCC(=O)N[C@@H](C)C(=O)N1CCC[C@H]1C(=O)N1CCC[C@H]1C(=O)N1CCC[C@H]1C(=O)N[C@@H](CO)C(N)=O)C(C)C)[C@@H](C)CC` [Example 99] (H-Y[Aib]EGT[αMePhe(2-F)]ISDYSIALDKIHQ[Aib]DFVEYK([AEEA-AEEA-γGlu-C20 diacid])LEGGPSSGAPPPS-NH2), the inhibition constant (Ki) is 174 nM in experiment [1], 0.0341 nM in experiment [2] and over 901 nM in experiment [3].

The values are drawn from patent publication US12723063B2, “GIPR-agonist compounds” (Eli Lilly and Company, priority 2019, dated 2026).
